Tests used:
[1] = pKa used to separate acids by titration; type: physicochemical
Method: 4-(2,3-Dimethoxyphenyl)but-3-enoic acid (5). Recrystallized paraconic acid 4 (8.6 g, 0.032 mol) was placed into a one-neck round bottom flask and the solid was heated in a 180° C. oil bath for 6 h. Carbon dioxide could be observed bubbling out of the dark brown liquid. The reaction was cooled to room temperature and dissolved in CH2Cl2. The product and any unreacted starting material were extracted into 2 N NaOH (3×100 mL). The pKa of the butenoic acid is approximately 4.2, whereas the pKa of the paraconic acid is approximately 3.6, so the two compounds were separated by titration. The basic aqueous extract was carefully acidified with 2 N HCl, with monitoring by a calibrated pH meter. Once the pH reached 4.5, the solution started becoming slightly cloudy. The solution pH was adjusted to 4.0 and the aqueous solution was extracted with CH2Cl2. After extraction the pH of the aqueous layer increased to around 5 and the titration was repeated until there was no cloudiness at pH 4.0. The starting material was recovered by acidifying to pH 3.0 and extracting with CH2Cl2. The initial organic extracts were dried over Na2SO4, and evaporated under reduced pressure to yield pure 5 that solidified under reduced pressure as a yellow solid (4.7 g, 0.021 mol, 65.2%) that was used without further purification; mp 84-86° C. […]

D1 receptor = D1 receptor (Homo sapiens, UniProt P21728); details: reported; cited from earlier work
D2 receptor = D2 receptor (Homo sapiens, UniProt P14416); details: reported; cited from earlier work
[2] = rodents and non-human primates; iv, sc, po; cited from earlier work
D2-like receptor sites = D2-like receptor sites (Sus scrofa, UniProt A0ACM8QMZ9); assay: Competitive binding, porcine striatal tissue, [3H]-spiperone (50 nM ketanserine present); details: porcine striatal membranes; read-out: Kd for D2-like receptor sites (receptor isotherm)
Chain of D2-like receptor sites (A0ACM8QMZ9 entry or part of it): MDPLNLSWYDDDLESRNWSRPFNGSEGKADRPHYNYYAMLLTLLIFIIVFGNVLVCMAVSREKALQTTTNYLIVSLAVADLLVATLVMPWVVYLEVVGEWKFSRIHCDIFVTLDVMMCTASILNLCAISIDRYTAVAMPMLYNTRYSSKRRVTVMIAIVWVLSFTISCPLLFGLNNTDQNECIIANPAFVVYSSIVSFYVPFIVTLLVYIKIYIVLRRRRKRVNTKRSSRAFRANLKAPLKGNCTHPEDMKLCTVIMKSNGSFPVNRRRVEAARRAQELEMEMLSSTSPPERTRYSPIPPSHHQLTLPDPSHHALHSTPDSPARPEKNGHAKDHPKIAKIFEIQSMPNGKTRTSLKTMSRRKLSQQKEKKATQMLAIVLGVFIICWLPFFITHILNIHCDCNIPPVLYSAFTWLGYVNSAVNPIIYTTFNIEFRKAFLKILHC
Method: Competitive Binding Experiments. Porcine striatal tissue is obtained from the Purdue Butcher Block and prepared as described in the literature. Striatal tissue is homogenized using a potter-type homogenizer, suspended in homogenization buffer (20 mM Hepes, 0.32 M sucrose, pH 7.4), and spun at 1,000 g for 10 minutes at 4° C. The pellet (P1) is discarded and supernatant is centrifuged at 30,000 g for 10 minutes at 4° C. The resultant pellet (P2) is resuspended in 50 mM Tris buffer (pH 7.4) by briefly using a Kinematica homogenizer, and then centrifuged at 30,000 g for 30 minutes at 4° C. This pellet is resuspended again in 50 mM Tris buffer, dispensed into 1 mL aliquots, and centrifuged for 10 min. at 13,000 g at 4° C. A BSA protein assay is used to determine the final weight of the pellets. Supernatant is aspirated and pellets are frozen at −80° C. until use.
Receptor and competitive binding experiments are performed as described in the literature. Pellets are resuspended (1 mL/mg) in receptor binding buffer (50 mM Hepes, 4 mM MgCl2, pH 7.4) and 75 μg protein is used per well. […] All binding experiments are incubated for 30 minutes at 37° C., and are terminated and counted in a similar fashion to the cAMP binding assays.
Data Analysis. […] Ki values are calculated from IC50 using the Cheng-Prusoff equation.

Chain of D2 receptor (P14416 whole entry): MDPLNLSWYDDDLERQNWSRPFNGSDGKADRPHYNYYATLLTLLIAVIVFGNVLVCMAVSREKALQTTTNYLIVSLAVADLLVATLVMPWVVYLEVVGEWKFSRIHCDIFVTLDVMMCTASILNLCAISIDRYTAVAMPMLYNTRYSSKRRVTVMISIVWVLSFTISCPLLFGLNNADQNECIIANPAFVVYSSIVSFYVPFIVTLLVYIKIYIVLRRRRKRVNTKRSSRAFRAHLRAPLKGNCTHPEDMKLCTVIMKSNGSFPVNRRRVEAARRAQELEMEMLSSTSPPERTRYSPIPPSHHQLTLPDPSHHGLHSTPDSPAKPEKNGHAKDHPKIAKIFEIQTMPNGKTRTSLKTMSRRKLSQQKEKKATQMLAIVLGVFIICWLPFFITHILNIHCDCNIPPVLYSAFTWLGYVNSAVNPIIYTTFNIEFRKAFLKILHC
Chain of D1 receptor (P21728 whole entry): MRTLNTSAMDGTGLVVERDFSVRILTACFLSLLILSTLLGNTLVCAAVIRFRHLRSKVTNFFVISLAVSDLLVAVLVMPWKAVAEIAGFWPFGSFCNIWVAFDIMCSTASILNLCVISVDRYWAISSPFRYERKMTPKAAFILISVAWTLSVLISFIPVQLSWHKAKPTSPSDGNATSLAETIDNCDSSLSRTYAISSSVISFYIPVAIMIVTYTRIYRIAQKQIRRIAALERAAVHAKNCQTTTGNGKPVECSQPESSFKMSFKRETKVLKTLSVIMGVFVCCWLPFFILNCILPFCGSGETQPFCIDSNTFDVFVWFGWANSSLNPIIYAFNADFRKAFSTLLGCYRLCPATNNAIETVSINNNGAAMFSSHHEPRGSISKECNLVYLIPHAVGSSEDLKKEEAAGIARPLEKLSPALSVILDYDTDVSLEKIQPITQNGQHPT

| Compound | pKa [1] | melting point | other results |
| --- | --- | --- | --- |
| COc1cccc(C2OC(=O)CC2C(=O)O)c1OC (centres unmarked) [Compound 4, 2-(2,3-Dimethoxyphenyl)-5-oxo-tetrahydrofuran-3-carboxylic acid] | ~3.6 | – | – |
| Cl.Oc1cc2c(cc1O)[C@@H]1c3ccccc3CN[C@H]1CC2 (racemic) [dihydrexidine, (±)-trans-10,11-dihydroxy-5,6,6a,7,8,12b-hexahydrobenzo[a]phenanthridine hydrochloride] | – | – | affinity for the D1 receptor (D1 receptor): 2.2 nM; affinity for the D2 receptor (D2 receptor): 183 nM; plasma clearance [2]: cleared rapidly from plasma |
| Br.Oc1ccc2c(c1O)CC[C@H]1CCNC[C@H]21 (relative stereo) [Compound 2, Trans-1,2,3,4,4a,5,6,10b-octahydrobenzo[h]isoquinoline-7,8-diol HBr] | – | > 250 °C | – |
| Br.Oc1ccc2c(c1O)CC(c1ccccc1)C1CCNCC21 (centres unmarked) [Compound 3, 5-Phenyl-1,2,3,4,4a,5,6,10b-octahydrobenzo[h]isoquinoline-7,8-diol HBr] | – | > 250 °C | – |
| O=C(CCCN1CCC2(CC1)C(=O)NCN2c1ccccc1)c1ccc(F)cc1 [[3H]-spiperone] | – | – | Kd (D2-like receptor sites): 0.075 nM |
| COc1cccc(C=CCC(=O)O)c1OC [Compound 5, 4-(2,3-Dimethoxyphenyl)but-3-enoic acid] | ~4.2 | – | – |

From patent US9359303B2, “Octahydrobenzoisoquinoline modulators of dopamine receptors and uses therefor” (Purdue Research Foundation, priority 2009, dated 2016)
